Experimental data taken from ChEMBL document CHEMBL5346964, “Discovery of LNP1892: A Precision Calcimimetic for the Treatment of Secondary Hyperparathyroidism” (J Med Chem, 2023).

Key:
[1] = Cmax in Sprague-Dawley rat at 10 mg/kg, po administered as suspension measured upto 24 hrs by LC-MS/MS analysis; assay type: ADME, organism-based; parameters: dose 10 mg/kg, time < 24 hrs, route po; settings: in vivo
[2] = Oral bioavailability in Sprague-Dawley rat at 10 mg/kg administered as suspension measured upto 24 hrs by LC-MS/MS analysis; assay type: ADME, organism-based; settings: in vivo
[3] = Effect on parathyroid hormone in overnight fasted Sprague-Dawley rat assessed as reduction in plasma PTH level at 3 mg/kg, po measured after 0.5 hrs of post treatment by sandwich ELISA analysis; assay type: functional; parameters: scale not given: the % may be the effect or the level left
Rattus norvegicus [4] = experiment: Acute effect on parathyroid hormone in overnight fasted adenine diet-induced chronic kidney disease Wistar rat model assessed as reduction in plasma PTH level at 10 mg/kg, po measured after 1 hrs of post treatment by sandwich ELISA analysis; assay type: functional; parameters: scale not given: the % may be the effect or the level left
Rattus norvegicus [5] = experiment: Acute effect on parathyroid hormone in overnight fasted adenine diet-induced chronic kidney disease Wistar rat model assessed as reduction in plasma PTH level at 1 mg/kg, po measured after 2 hrs of post treatment by sandwich ELISA analysis; assay type: functional; parameters: scale not given: the % may be the effect or the level left
Rattus norvegicus [6] = experiment: Acute effect on parathyroid hormone in overnight fasted adenine diet-induced chronic kidney disease Wistar rat model assessed as reduction in plasma PTH level at 3 mg/kg, po measured after 2 hrs of post treatment by sandwich ELISA analysis; assay type: functional; parameters: scale not given: the % may be the effect or the level left
Rattus norvegicus [7] = experiment: Chronic effect on parathyroid hormone in overnight fasted adenine diet-induced chronic kidney disease Wistar rat model plasma assessed as reduction in plasma PTH level at 1 mg/kg, po qd measured after 27 days of post treatment by sandwich ELISA analysis; assay type: functional; parameters: scale not given: the % may be the effect or the level left; settings: time 27 day
[8] = Tmax in Sprague-Dawley rat at 10 mg/kg; assay type: ADME, organism-based; settings: in vivo
[9] = AUC(0 to 24 hrs) in Sprague-Dawley rat at 100 mg/kg; assay type: ADME, organism-based; parameters: dose 100 mg/kg; settings: in vivo
[10] = Metabolic stability in rat liver S9 fraction measured upto 60 mins by LC-MS/MS method; assay type: ADME, subcellular; settings: read-out: Stability
[11] = Metabolic stability in dog liver S9 fraction measured upto 60 mins by LC-MS/MS method; assay type: ADME, subcellular, Canis lupus familiaris; settings: read-out: Stability
[12] = Metabolic stability in human liver cytosol measured upto 60 mins by LC-MS/MS method; assay type: ADME, subcellular; settings: read-out: Stability
[13] = Stability in dog plasma measured up to 4 hrs by LC-MS/MS method; assay type: ADME, cell-free, Canis lupus familiaris; settings: read-out: Stability
[14] = Protein binding in mouse plasma incubated for 16 hrs under shaking condition by rapid equilibrium dialysis based LC-MS/MS method; assay type: ADME, cell-free; settings: read-out: PPB
[15] = Protein binding in human plasma incubated for 16 hrs under shaking condition by rapid equilibrium dialysis based LC-MS/MS method; assay type: ADME, cell-free; settings: read-out: PPB
[16] = Stability in human liver microsomes assessed as parent compound remaining measured after 60 mins in presence of NADPH by LC-MS/MS analysis; assay type: ADME, Microsome; settings: read-out: Stability
CYP2C19 = CYP2C19 (Homo sapiens, UniProt P33261); experiment: Inhibition of CYP2C19 in human liver microsomes at 10 uM preincubated for 5 mins followed by NADPH addition by LC-MS/MS analysis relative to control; assay type: ADME, Microsome
Chain of CYP2C19 (P33261 whole entry): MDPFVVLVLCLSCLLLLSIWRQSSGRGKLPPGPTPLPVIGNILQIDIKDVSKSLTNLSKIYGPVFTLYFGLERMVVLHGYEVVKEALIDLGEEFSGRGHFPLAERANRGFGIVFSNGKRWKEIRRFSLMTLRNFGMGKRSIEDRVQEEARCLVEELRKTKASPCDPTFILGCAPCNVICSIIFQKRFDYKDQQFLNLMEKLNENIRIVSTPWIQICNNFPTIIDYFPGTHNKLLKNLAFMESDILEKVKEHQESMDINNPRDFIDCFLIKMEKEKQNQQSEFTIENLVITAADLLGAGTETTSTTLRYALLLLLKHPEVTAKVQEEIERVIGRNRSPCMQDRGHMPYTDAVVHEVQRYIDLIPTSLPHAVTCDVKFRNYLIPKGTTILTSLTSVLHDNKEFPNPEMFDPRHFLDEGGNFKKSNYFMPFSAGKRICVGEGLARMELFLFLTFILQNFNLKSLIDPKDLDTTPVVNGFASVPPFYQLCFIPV

[17] = Apparent permeability across apical to basolateral side in human Caco-2 cells at 5 uM measured after 30 to 120 mins by LC-MS/MS analysis; assay type: ADME, cell-based; settings: time 30-120 min
[18] = Kinetic solubility of compound in FaSSIF upto 500 uM measured after 16 hrs under shaking condition by UV-visible method; assay type: physicochemical; settings: read-out: Kinetic_solubility
[19] = Kinetic solubility of compound in SIF upto 500 uM measured after 16 hrs under shaking condition by UV-visible method; assay type: physicochemical; settings: read-out: Kinetic_solubility
[20] = Kinetic solubility of compound in water upto 500 uM measured after 16 hrs under shaking condition by UV-visible method; assay type: physicochemical; settings: read-out: Kinetic_solubility
[21] = Kinetic solubility of compound in SGF upto 500 uM measured after 16 hrs under shaking condition by UV-visible method; assay type: physicochemical; settings: read-out: Kinetic_solubility
[22] = Chemical stability of the compound in SIF measured after 0.5 to 4 hrs; assay type: physicochemical; settings: simulated gi fluid; time 0.5-4 hrs
[23] = Plasma clearance in Sprague-Dawley rat at 1 mg/kg, iv measured upto 24 hrs by LC/MS-MS analysis; assay type: ADME, organism-based
[24] = Tmax in cynomolgus monkey at 5 mg/kg, po measured upto 24 hrs by LC/MS-MS analysis; assay type: ADME, organism-based, Macaca fascicularis; settings: in vivo
[25] = Cmax in BALB/c mouse at 10 mg/kg, po measured upto 24 hrs by LC/MS-MS analysis; assay type: ADME, organism-based; parameters: dose 10 mg/kg, time < 24 hrs, route po; settings: in vivo
[26] = AUC in cynomolgus monkey at 5 mg/kg, po measured upto 24 hrs by LC/MS-MS analysis; assay type: ADME, organism-based, Macaca fascicularis; parameters: dose 5 mg/kg, time < 24 hrs, route po; settings: in vivo
[27] = Drug excretion in rat assessed as drug recovery in urine at 1 mg/kg, iv; assay type: ADME, organism-based; settings: read-out: Drug recovery
[28] = Drug excretion in BALB/c mouse assessed as drug recovery in feces at 10 mg/kg, po; assay type: ADME, organism-based; settings: faeces, read-out: Drug recovery
[29] = Ratio of drug concentration in blood to plasma in rat; assay type: ADME, cell-free
[30] = Toxicity in mouse assessed as NOAEL; settings: in vivo
[31] = Cmax in human at 25 mg/kg, po administered as single dose; assay type: ADME, organism-based; parameters: dose 25 mg/kg, route po; settings: in vivo
[32] = AUC(0 to t) in human at 25 mg/kg, po administered as multiple dose on day 8; assay type: ADME, organism-based; parameters: dose 25 mg/kg, route po; settings: in vivo
[33] = Genotoxicity in Salmonella typhimurium by Ames test; assay type: toxicity; settings: salmonella enterica subsp. enterica serovar typhimurium
[34] = molecular target: Mu-type opioid receptor (Homo sapiens) (UniProt P35372); experiment: Inhibition of human recombinant MOP receptor at 10 uM relative to control
Chain of Mu-type opioid receptor (Homo sapiens) (P35372 whole entry): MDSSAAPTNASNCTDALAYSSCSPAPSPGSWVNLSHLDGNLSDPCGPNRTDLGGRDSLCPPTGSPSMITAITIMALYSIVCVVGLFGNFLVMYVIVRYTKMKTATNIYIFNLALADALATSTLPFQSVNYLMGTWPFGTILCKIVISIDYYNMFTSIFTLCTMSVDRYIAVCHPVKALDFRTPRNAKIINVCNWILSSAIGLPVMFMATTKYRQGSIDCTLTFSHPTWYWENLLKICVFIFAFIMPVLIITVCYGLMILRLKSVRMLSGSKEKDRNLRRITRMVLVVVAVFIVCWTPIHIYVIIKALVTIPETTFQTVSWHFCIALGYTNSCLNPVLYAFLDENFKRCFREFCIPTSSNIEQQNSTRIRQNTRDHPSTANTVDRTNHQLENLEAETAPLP

Cc1ccc([C@@H]2C[C@H](CN[C@H](C)c3cccc4ccccc34)Oc3ccccc32)cc1C(=O)O.Cl
Cmax [1]: 4 µM | bioavailability [2]: 33% | Activity [3]: 100% | Activity (Rattus norvegicus [4]): 96% | Activity (Rattus norvegicus [5]): 95% | Activity (Rattus norvegicus [6]): 96% | Activity (Rattus norvegicus [7]): 65% | Tmax [8]: 1 h | AUC(0-t) [9]: 426 µM·h | remaining at 1 h [10]: > 80% | remaining at 1 h [11]: > 80% | remaining at 1 h [12]: > 80% | remaining at 4 h [13]: > 80% | fraction unbound at 16 h [14]: < 0.01 | fraction unbound at 16 h [15]: < 0.01 | remaining at 1 h [16]: ~30% | inhibition at 10 µM (CYP2C19): 7% | Papp A→B at 5 µM [17]: 20 ×10⁻⁶ cm/s | solubility kinetic at 16 h, 500 µM [18]: > 300 µM | solubility kinetic at 16 h, 500 µM [19]: > 300 µM | solubility kinetic at 16 h, 500 µM [20]: > 300 µM | solubility kinetic at 16 h, 500 µM [21]: > 200 µM | Stability [22]: Stable | clearance [23]: 4 mL/min/kg | Tmax [24]: 1.7 h | Cmax [25]: 31 µM | AUC at 24 h [26]: 1.3 µM·h | dose excreted [27]: < 1% | dose excreted [28]: 23% | blood plasma ratio [29]: 0.64 | NOAEL [30]: 50 mg/kg/day | Cmax [31]: 367 ng/mL | AUC(0-t) [32]: 5090 ng·h/mL | Activity [33]: Non-Toxic | inhibition [34]: > 50%
